Data published in patent US20260294927A1, “KIF18A INHIBITOR COMPOUND, AND PHARMACEUTICAL COMPOSITION AND PREPARATION METHOD THEREFOR AND USE THEREOF” (CHANGCHUN GENESCIENCE PHARMACEUTICAL CO., LTD., priority 2022, published 2026).

System: OVCAR-3 cells
Test: imaging-based nuclear count analysis (NCA) in OVCAR-3 cells
Assay type: cell-based
Details: Homo sapiens, 96 h, 4 days, nuclear count with Hoechst 33342, 0.1% DMSO, low control 10 μM AM-5308
Experimental: Test name: imaging-based nuclear count analysis (NCA) in OVCAR-3 cells
• a) The final test concentrations of AM-5308:10000, 3333.3, 1111.1, 370.3, 123.4, 41.1, 13.7, 4.5, 1.5, 0.5 nM. • b) The final test concentrations of the test compound: 10000, 3333.3, 1111.1, 370.3, 123.4, 41.1, 13.7, 4.5, 1.5, 0.5 nM. • c) The cells were cultured in a 37° C., 5% CO2 incubator for 4 days. • d) DMSO concentration was 0.1%. Day 1 Seeding the Cells into a 384-Well Cell Culture Plate • a) When the cell confluence reached 80%-90%, the cells were treated. • b) The cells were resuspended in a medium and then counted and diluted at a desired density. • c) A cell suspension containing appropriate cells was added to the 384-well plate at 30 μL/well: 600 cells/well. […]
High-reading control wells: cells+30 nL DMSO; low-reading control wells: 10 μM AM-5308.
IC50 (nM) was calculated using GraphPad Prism 8 software and the effect-dose curves of the compound were plotted.

IC50: 110 nM
Structure (SMILES): O=C(Nc1cccc2c1nc1n2C2CCC1CC2)c1ccc(NS(=O)(=O)CCO)cc1N1CCC2(CC1)CC2 [Compound 100, 4-(2-hydroxyethanesulfonylamino)-2-(6-azaspiro[2.5]octan-6-yl)-N-(1,2,3,4-tetrahydro-1,4-ethylbenzo[4,5]imidazo[1,2-a]pyridin-6-yl)benzamide]
